For the assay, the system named is HeLa cells. In words: Quantitative determination of peptide uptake inside cells (bulk fluorescence of cell lysates). It is filed as cell-based. To be noted: 1-10 μM, 1 h. The protocol: HeLa cells were seeded in a 48 well dish, grown and washed as described above. For the peptide uptake experiment, each well was incubated for 1 h with varying concentration of acTAT, TAT or dTAT (range: 5-25 μM peptide concentration). For the titration experiment, cells were incubated with dTAT (5 μM) and varying concentrations of DEAC-K9 (range: 1-20 μM). Cells were then washed with PBS and nrL-15 and imaged. Multiple images for each condition were obtained and processed. To lyse cells, nrL-15 was removed from the wells and a total of 100 μL of HeLa cell lysis Buffer (50 mM Tris pH 7.5, 2 mM EDTA, 2 mM DTT, 0.1% Triton X-100) was incubated with cells for 5 min. The cells were lysed and scraped off the dish and pipetted into a 1.5 mL microcentrifuge tube. The cell lysates were centrifuged at 13.2K RPM for 25 min. […] The fluorescence from the cell lysates were measured using a plate reader equipped with a fluorescence module (Ex==525, Em=580-640 nm) (GloMax®-Multi+ Detection System, Promega, Fitchburg, Wis.). For the titration experiment, 80 μL of supernatant was diluted to a total volume of 100 μL and the bulk fluorescence was measured using a SLM-8000C fluorometer (Ex=435 nm, Em=465-475 nm) (SLM Instruments, Bath, UK). The fluorescence emission was averaged and recorded. […] The absorbance at 600 nm was measured using the plate reader. […]

Ends that are not written are not given here.

With “(CK(TMR)TAT)2 (CK(TMR)RKKRRQRRRG; also: dimer) [dTAT, dimer of two CK(TMR)-TAT monomers linked via a disulfide bond between the N-terminal cysteine residues]”, the “overall amount of peptide inside cells (cytosol+endosomes), bulk fluorescence of lysates” value is listed as “almost linearly correlated to the concentration of dTAT administered extracellularly”.

The values are drawn from US9662404B2, “Compositions and methods for the delivery of molecules into live cells” (The Texas A&M University System, priority 2013, dated 2017).
